Structures are written as SMILES. Where “and” joins values, the source holds several entries; their conditions need not be identical. Equal entries are not always repeated. Numbers after ± are expanded uncertainties.

Usually mass density stands for the mass of a sample divided by its volume.

The conditions of data set [1]: 298.15 K, Liquid, Vibrating tube method.
Data set [2] can be described thus: xn = mol fraction of the nth substance listed. The note with it: 298.15 K, 101 kPa, Liquid, Vibrating tube method.

As to `Cc1ccccc1C` [1,2-dimethylbenzene], the mass density in data set [1] (101.33 kPa) was found to be 875.6 ± 0.5 kg/m3.
Regarding `CCCCC(CC)COP(=O)(O)OCC(CC)CCCC` (configuration not stated) [bis(2-ethylhexyl) hydrogen phosphate], the mass density in data set [1] (101 kPa) was 971 ± 2 kg/m3 and 970.5 ± 2 kg/m3; in data set [1] (101.33 kPa), 969.1 ± 0.6 kg/m3.
As to `CCCCC(CC)COP(=O)([O-])OCC(CC)CCCC.CCCCC(CC)COP(=O)([O-])OCC(CC)CCCC.CCCCC(CC)COP(=O)([O-])OCC(CC)CCCC.[Gd+3]` (configuration not stated) [gadolinium(III) bis(2-ethylhexyl) phosphate] + CCCCC(CC)COP(=O)(O)OCC(CC)CCCC, the mass density in data set [2] (x1 = 0.01568) is recorded as 978.4 ± 2 kg/m3; in data set [2] (x1 = 0.0349), 987.4 ± 2 kg/m3; in data set [2] (x1 = 0.04335), 991.2 ± 2 kg/m3; in data set [2] (x1 = 0.05925) it was 997.8 ± 2 kg/m3.

For the origin of these results see the NIST ThermoML archive (doi:10.1021/acs.jced.8b00487).
